Experimental data taken from patent US9926375B2, “Anti-endoglin antibodies and uses thereof” (Tracon Pharmaceuticals, Inc., priority 2014, dated 2018).

Legend:
human endoglin = target: T1, human endoglin (Homo sapiens, UniProt P17813); details: statement in description; cited from earlier work
T1 sequence (P17813 26-658): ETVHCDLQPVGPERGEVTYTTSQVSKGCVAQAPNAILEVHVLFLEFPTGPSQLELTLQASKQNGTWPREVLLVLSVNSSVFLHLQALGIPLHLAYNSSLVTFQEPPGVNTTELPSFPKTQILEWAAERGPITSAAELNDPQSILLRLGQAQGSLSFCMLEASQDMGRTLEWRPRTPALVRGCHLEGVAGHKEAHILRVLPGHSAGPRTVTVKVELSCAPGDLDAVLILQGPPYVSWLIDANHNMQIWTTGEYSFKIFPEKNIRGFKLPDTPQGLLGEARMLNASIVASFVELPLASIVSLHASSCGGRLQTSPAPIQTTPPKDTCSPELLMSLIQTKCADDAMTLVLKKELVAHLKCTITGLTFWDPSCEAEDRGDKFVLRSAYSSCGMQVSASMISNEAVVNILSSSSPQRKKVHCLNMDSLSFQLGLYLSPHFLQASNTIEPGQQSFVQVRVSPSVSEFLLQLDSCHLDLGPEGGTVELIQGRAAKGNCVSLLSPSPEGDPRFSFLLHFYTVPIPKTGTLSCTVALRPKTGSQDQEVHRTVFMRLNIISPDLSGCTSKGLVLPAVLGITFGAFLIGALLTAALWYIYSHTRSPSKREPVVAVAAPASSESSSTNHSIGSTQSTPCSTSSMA

NASH mice = test: Murine model of non-alcoholic steatohepatitis (NASH; STZ and high fat diet); format: in vivo, mouse
Source text: The purpose of this study was to examine the protective effects of endoglin antibodies on a murine model of NASH.
NASH was established by a single subcutaneous injection of STZ (Sigma, USA) after birth and feeding with a high fat diet (HFD; CLEA Japan, Japan) ad libitum after 4 weeks of age (day 28±2).
Randomization of mice into 6 groups of 10 mice was done at 9 weeks of age (day 63±2), the day before the start of treatment.
Group 3 (Positive control; Temlisartan Group): Ten NASH mice were be orally administered pure water supplemented with telmisartan at a dose of 10 mg/kg once daily from day 63 to 84.
Group 4 (Antibody M1043: M1043 Group): Ten NASH mice were intravenously administered vehicle supplemented with Antibody M1043 at a dose of 10 mg/kg twice weekly at day 63, 66, 70, 73, 77 and 80.
Group 5 (Antibody TRC105; TRC105 Group): Ten NASH mice were intravenously administered vehicle supplemented with Antibody TRC105 at a dose of 10 mg/kg twice weekly at day 63, 66, 70, 73, 77 and 80.
Group 6 (Antibody TRC205; TRC205 Group): Ten NASH mice were intravenously administered vehicle supplemented with Antibody TRC205 at a dose of 10 mg/kg twice weekly at days 63, 66, 70, 73, 77 and 80.
Mice in all groups were terminated for the following assays at 12 weeks of age.
H&E staining of liver tissue was conducted to estimate NAFLD Activity score.
Total NAS score represents the sum of scores for steatosis, lobular inflammation, and ballooning, and ranges from 0-8. Diagnosis of NASH (or, alternatively, fatty liver not diagnostic of NASH) should be made first, then NAS is used to grade activity. In the reference study, NAS scores of 0-2 occurred in cases largely considered not diagnostic of NASH, scores of 3-4 were evenly divided among those considered not diagnostic, borderline, or positive for NASH. Scores of 5-8 occurred in cases that were largely considered diagnostic of NASH.
Statistical tests were performed using Bonferroni Multiple Comparison Test. P values<0.05 were considered statistically significant.

mouse endoglin [1] = target: T2, mouse endoglin (Mus musculus, UniProt Q63961); test: Inhibition of mouse BMP binding to mouse endoglin (statement, no method); details: statement in description
T2 sequence (Q63961 27-653): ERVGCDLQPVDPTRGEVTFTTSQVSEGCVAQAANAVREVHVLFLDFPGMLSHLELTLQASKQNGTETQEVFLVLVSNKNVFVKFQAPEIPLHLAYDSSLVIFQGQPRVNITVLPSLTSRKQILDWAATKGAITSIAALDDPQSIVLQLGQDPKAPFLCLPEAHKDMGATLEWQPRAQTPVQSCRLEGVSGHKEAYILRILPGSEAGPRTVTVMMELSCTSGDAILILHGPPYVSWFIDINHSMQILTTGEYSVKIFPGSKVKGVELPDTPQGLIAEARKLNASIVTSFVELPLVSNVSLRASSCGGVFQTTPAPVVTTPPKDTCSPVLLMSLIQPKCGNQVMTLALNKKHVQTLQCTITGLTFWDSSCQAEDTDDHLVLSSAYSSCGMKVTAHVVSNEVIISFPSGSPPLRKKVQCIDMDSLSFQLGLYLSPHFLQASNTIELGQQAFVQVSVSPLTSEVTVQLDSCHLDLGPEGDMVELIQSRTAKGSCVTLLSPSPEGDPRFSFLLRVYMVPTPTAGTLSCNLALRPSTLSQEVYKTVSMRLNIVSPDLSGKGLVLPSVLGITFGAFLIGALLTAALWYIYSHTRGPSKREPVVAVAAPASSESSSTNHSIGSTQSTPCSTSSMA

[2] = test system: BLM-induced pulmonary fibrosis model mice; test: Bleomycin-induced pulmonary fibrosis model; format: in vivo, mouse; details: vs isotype-control antibody group (isotype-control vs disease control group); day 21; Bonferroni, P<0.05
Method: Pathogen-free 7 weeks old female C57BL/6J mice were obtained from Japan SLC, Inc. (Japan). At day 0, 60 mice were induced to develop pulmonary fibrosis by a single intratracheal administration of bleomycin sulphate (BLM, Nippon Kayaku, Japan) in saline at a dose of 3 mg/kg, in a volume of 50 μL per animal using Microsprayer® (Penn-Century, USA).
BLM-induced pulmonary fibrosis model mice were randomized into 4 groups of 12 mice based on the body weight on the day before the start of treatment.
Group 3 (M1043 Antibody): Twelve BLM-induced pulmonary fibrosis model mice were intravenously administered vehicle supplemented with M1043 at a dose of 10 mg/kg twice weekly at day 7, 10, 14 and 17.
Group 4 (TRC105 human/mouse chimeric antibody): Twelve BLM-induced pulmonary fibrosis model mice were intravenously administered vehicle supplemented with TRC105 at a dose of 10 mg/kg twice weekly at day 7, 10, 14 and 17.
Group 5 (BIBF1120 inhibitor for Idiopathic Pulmonary Fibrosis—positive control, Boehringer Ingelheim): Twelve BLM-induced pulmonary fibrosis model mice were orally administered 1% CMC supplemented with BIBF1120 at a dose of 100 mg/kg once daily from day 7 to 21. […]
Histological analysis of lung sections was conducted by practitioners who are not aware of the Group identity. Masson's Trichrome staining is conducted and an Ashcroft Score estimate was determined. […]

mouse endoglin [3] = target: T3, mouse endoglin (Mus musculus, UniProt Q63961); test: Competition ELISA of mouse BMP9 against biotinylated M1043 for binding to mouse endoglin; details: 30 μg/ml to 0.004 μg/ml competitor; biotinylated M1043 40 ng/ml
T3 construct: purchased R&D Systems 1320-EN-025
T3 sequence (Q63961 27-581 limits assumed): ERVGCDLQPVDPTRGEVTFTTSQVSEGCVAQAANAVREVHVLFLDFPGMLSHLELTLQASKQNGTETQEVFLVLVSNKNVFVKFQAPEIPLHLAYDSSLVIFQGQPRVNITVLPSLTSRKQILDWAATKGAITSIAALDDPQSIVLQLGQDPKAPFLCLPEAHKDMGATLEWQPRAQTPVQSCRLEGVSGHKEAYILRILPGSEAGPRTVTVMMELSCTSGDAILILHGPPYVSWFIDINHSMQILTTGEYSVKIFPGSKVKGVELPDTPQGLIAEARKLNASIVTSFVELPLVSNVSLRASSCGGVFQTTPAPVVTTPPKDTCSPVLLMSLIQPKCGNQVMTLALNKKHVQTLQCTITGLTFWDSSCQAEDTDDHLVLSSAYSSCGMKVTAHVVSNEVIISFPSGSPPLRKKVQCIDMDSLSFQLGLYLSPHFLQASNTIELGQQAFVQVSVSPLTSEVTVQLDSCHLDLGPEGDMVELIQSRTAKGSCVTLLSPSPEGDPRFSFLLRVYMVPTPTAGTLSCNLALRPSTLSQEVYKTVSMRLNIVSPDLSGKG
Method: The ability of mouse BMP9 to compete with the rat antibody M1043 for binding to mouse endoglin was determined by competition ELISA as follows: 200 μg of M1043 antibody was biotinylated with a Lightning-Link biotinylation kit (Innova Biosciences, Cat. No. 704-0010) according to the manufacturers recommendations. Nunc Immuno MaxiSorp 96 well flat bottom plates (Fisher Cat. No. DIS-971-030J) were coated with mouse endoglin (R&D Systems, Cat. No. 1320-EN-025) at 1 μg/ml in PBS overnight at 4° C. The following day the plate was washed three times with PBST before blocking with PBST/3% Marvel at room temperature for 1 hour. A threefold dilution series (30 μg/ml to 0.004 μg/ml) of mouse BMP9 (R&D Systems, Cat. No. 5566-BP-010) or an irrelevant rat IgG1 was mixed with a fixed concentration of biotinylated M1043 (40 ng/ml), added to the plate and incubated for 1 hour at room temperature. Binding of the biotinylated antibody was detected via streptavidin-HRP (Sigma, Cat. No. 55512) and TMB substrate (Sigma, Cat. No. T0440). OD450 nm values were measured on a Dynex MRX TCII plate reader.

[4] = liver gene expression, mean ± SD, Normal-Vehicle 1.0

Molecule: TRC105: human murine chimeric IgG1 monoclonal antibody that binds endoglin; VL/VH SEQ ID NOS. 1 and 39
- Effect on human BMP binding to human endoglin (human endoglin): competitively inhibits human BMP binding
- Liver triglyceride contents compared with the NASH-Vehicle group (NASH mice; Bonferroni, P<0.05): tended to decrease
- NAS compared with the NASH-Vehicle group (NASH mice; Bonferroni, P<0.05): tended to decrease in NAS
- Serum alanine aminotransferase (ALT) levels compared with the NASH-Vehicle group (NASH mice; Bonferroni, P<0.05): no significant difference
- Serum alkaline phosphatase (ALP) levels compared with the NASH-Vehicle group (NASH mice; Bonferroni, P<0.05): tended to decrease
- Tissue inhibitor of metalloproteinase-1 mRNA expression levels compared with the NASH-Vehicle group (NASH mice; Bonferroni, P<0.05): significantly up-regulated
- Tumor necrosis factor-alpha mRNA expression levels compared with the NASH-Vehicle group (NASH mice; Bonferroni, P<0.05): significantly up-regulated
- F4/80-positive signals and cells in liver compared with the NASH-Vehicle group (NASH mice; F4/80 immunostaining, macrophage marker): Lower F4/80-positive signals and positive cells
- Alpha-SMA mRNA expression (NASH mice; [4]): 1.7 ± 0.7
- MCP-1 mRNA expression (NASH mice; [4]): 5.7 ± 4.2
- TIMP-1 mRNA expression (NASH mice; [4]): 25.4 ± 23.0
- TNF-α mRNA expression (NASH mice; [4]): 12.9 ± 9.5
- Liver triglyceride (NASH mice; mean ± SD): 31.1 ± 20.3 mg/g liver
- Serum ALP (NASH mice; mean ± SD): 291 ± 119 U/L
- Serum ALT (NASH mice; mean ± SD): 62 ± 57 U/L
- Serum AST (NASH mice; mean ± SD): 204 ± 205 U/L
- Sirius red-positive area (NASH mice; mean ± SD, liver sections): 0.92 ± 0.20%
- NAS (NAFLD Activity score) (NASH mice; mean ± SD, range 0-8, 10 mg/kg): 4.4 ± 1.4
- Steatosis score 0, number of mice (NASH mice; score 0 = <5%, 12 weeks of age): 1
- Hepatocyte ballooning score 0, number of mice (NASH mice; score 0 = None): 3
- Steatosis score 1, number of mice (NASH mice; score 1 = 5-33%): 6
- Lobular inflammation score 1, number of mice (NASH mice; score 1 = <2 foci/200x): 1
- Lobular inflammation score 2, number of mice (NASH mice; score 2 = 2-4 foci/200x): 5
- Steatosis score 2, number of mice (NASH mice; score 2 = >33-66%): 1
- Hepatocyte ballooning score 2, number of mice (NASH mice; score 2 = Many cells/prominent ballooning): 5
- Lobular inflammation score 3, number of mice (NASH mice; score 3 = >4 foci/200x): 2
- Effect on mouse BMP binding to mouse endoglin (mouse endoglin [1]): dose not prevent the binding of mouse BMP to mouse endoglin
- Ashcroft score, comparison between groups [2]: significantly lower

B1: mouse BMP9: mouse BMP9 (R&D Systems, Cat. No. 5566-BP-010), endoglin ligand (protein)
chain: STGASSHCQKTSLRVNFEDIGWDSWIIAPKEYDAYECKGGCFFPLADDVTPTKHAIVQTLVHLKFPTKVGKACCVPTKLSPISILYKDDMGVPTLKYHYEGMSVAECGCR
- Competition with biotinylated M1043 for binding to mouse endoglin (mouse endoglin [3]): competed with biotinylated M1043 for binding to mouse endoglin
